Results reported in US12655142B2 (Merck Patent GmbH, priority 2019, dated 2026).

Assays:
[1] = Determination of Efflux-Ratio (ER) in Caco-2 cells; settings: human, Caco-2, pH 7.4
Procedure: Determination of Efflux-Ratio (ER) in Caco-2 Cells
The efflux ratio of the test compounds was determined in Caco-2 human epithelial colorectal adenocarcinoma cell line (TC7 clone) using calculation of apparent permeability (Papp). Cell monolayers were differentiated in vitro for 14 days before the experiment. Subsequently, the test compound (in HBSS pH 7.4 at 1 μM final concentration) was applied on the donor side while HBSS buffer (pH 7.4) was added to the receiver wells. […] The plate was then incubated in a 5% CO2 incubator (37° C., 100% humidity). At the end of the 2 hours incubation period, 50 μL sample was removed from both donor and receiver wells and diluted 1:1 with equal volumes of acetonitrile for LC-MS/MS analysis. The LC-MS/MS analysis used a one-point calibration method from a 1 μM standard solution diluted 1:1 with equal volume of acetonitrile (consistent to the test samples).
The data was used to calculate the apparent permeabilities of the compounds in both apical to basolateral (Papp,AB) and basolateral to apical (Papp,BA) directions at 1 μM concentration in duplicate. The Papp values were calculated from the concentrations in the donor and receiver compartments using the following formula:
Efflux ratio was calculated according to the following formula:

[2] = molecular target: T1, GIST430/654 cell line expressing mutated constitutively active cKIT receptor tyrosine kinase (Δ560-576 deletion and V654A point mutation) (Homo sapiens, UniProt P10721, DEL560-576/V654A); assay: Cellular cKIT autophosphorylation (phospho-Y307-cKIT, Luminex bead assay) in GIST430/654 cells; assay type: cell-based; settings: compounds 45 min, read-out: GIST 430/654 IC50
T1 construct: endogenous in cells; host or cells: GIST430/654 cells
T1 sequence (P10721 with tags, fused parts or gaps DEL560-576/V654A): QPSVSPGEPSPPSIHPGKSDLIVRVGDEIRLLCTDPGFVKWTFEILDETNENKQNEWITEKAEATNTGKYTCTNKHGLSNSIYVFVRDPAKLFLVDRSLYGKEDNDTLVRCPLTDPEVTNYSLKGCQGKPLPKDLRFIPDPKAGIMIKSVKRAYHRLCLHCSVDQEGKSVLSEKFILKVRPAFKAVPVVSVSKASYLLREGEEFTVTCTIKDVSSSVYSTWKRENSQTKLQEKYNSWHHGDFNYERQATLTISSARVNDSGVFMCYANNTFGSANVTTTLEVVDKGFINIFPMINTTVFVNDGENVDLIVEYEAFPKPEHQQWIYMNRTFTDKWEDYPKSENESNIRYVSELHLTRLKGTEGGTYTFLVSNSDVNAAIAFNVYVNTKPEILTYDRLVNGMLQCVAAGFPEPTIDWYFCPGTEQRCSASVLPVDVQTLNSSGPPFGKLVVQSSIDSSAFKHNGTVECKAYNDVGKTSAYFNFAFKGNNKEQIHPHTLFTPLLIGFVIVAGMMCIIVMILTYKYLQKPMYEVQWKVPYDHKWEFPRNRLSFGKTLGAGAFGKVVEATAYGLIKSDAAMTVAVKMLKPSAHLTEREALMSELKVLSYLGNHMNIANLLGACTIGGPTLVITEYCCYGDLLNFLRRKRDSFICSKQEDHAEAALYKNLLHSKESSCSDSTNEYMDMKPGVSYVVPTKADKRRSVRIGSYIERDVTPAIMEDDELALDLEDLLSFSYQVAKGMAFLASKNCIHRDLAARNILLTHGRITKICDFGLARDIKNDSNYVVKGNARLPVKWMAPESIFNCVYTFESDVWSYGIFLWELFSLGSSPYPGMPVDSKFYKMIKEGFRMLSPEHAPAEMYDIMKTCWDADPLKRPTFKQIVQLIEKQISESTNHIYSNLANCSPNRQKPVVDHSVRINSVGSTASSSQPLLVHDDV
Procedure, shortened: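 Phospho-Y307 cKIT in lysates was measured on a Luminex bead assay, with total-cKIT capture overnight at 4 °C and phosphospecific plus PE secondary detection. Cells had 45 min exposure to a compound dilution series the day after plating: GIST430 (Δ560-576) or GIST430/654 (Δ560-576/V654A, grown with 100 nM imatinib). IC50 values are relative to 0.3% DMSO-treated cells.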

c-Kit(V654A) = molecular target: T2, c-Kit(V654A) (Homo sapiens, UniProt P10721, V654A); assay: c-Kit(V654A) assay (33P-ATP filter binding kinase assay); assay type: biochemical; settings: recombinant human c-Kit aa 544-end V654A, ATP 200 μM
T2 construct: recombinant human c-Kit, amino acids 544-end containing the V654A mutation; GST (N)
T2 sequence (P10721 544-976 V654A): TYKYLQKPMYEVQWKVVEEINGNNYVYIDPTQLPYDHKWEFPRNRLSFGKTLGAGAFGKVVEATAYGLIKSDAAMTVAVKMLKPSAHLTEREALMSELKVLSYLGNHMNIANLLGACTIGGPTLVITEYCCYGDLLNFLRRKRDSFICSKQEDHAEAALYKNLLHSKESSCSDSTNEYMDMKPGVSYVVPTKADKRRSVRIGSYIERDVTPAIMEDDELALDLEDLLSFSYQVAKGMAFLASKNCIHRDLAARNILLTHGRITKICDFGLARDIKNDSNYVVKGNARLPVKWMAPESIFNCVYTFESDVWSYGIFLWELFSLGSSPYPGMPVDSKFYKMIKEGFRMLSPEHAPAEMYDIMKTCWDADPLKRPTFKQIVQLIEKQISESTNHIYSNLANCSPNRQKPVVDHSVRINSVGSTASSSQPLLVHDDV
Procedure, shortened: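 Radiometric filter-binding read-out: substrate 33P incorporation counted by scintillation after P30 filtermat washes in 75 mM phosphoric acid and methanol. Enzyme: N-GST recombinant human c-Kit aa 544-end carrying V654A.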

Structure (SMILES) | efflux ratio at 2 h, 1 μM [1] | IC50 [2] | IC50 (c-Kit(V654A))
COCCOc1ccn2c(-c3cc(NCc4ccc(-c5cnn6c5CCC6)cc4)ncn3)cnc2c1 [A17, 6-[7-(2-methoxyethoxy)imidazo[1,2-a]pyridin-3-yl]-N-[(4-{4H,5H,6H-pyrrolo[1,2-b]pyrazol-3-yl}phenyl)methyl]pyrimidin-4-amine] | < 15 | 110 nM | 9.7 nM
COCCn1cc(-c2ccc(CNc3cc(-c4cnc5cc(OC)ccn45)ncn3)cc2)cn1 [A19, {4-[1-(2-methoxy-ethyl)-1H-pyrazol-4-yl]-benzyl}-[6-(7-methoxy-imidazo[1,2-a]pyridin-3-yl)-pyrimidin-4-yl]-amine] | < 15 | 71 nM | 9.4 nM
COc1ccn2c(-c3cc(NCc4ccc(-c5cnn(CC6CC6)c5)cc4)ncn3)cnc2c1 [A21, [4-(1-cyclopropylmethyl-1H-pyrazol-4-yl)-benzyl]-[6-(7-methoxy-imidazo[1,2-a]pyridin-3-yl)-pyrimidin-4-yl]-amine] | < 15 | 58 nM | 4.8 nM
COCCn1ncc(-c2ccc(CNc3cc(-c4cnc5cc(OC)ccn45)ncn3)cc2)n1 [A46, N-({4-[2-(2-methoxyethyl)-2H-1,2,3-triazol-4-yl]phenyl}methyl)-6-{7-methoxyimidazo[1,2-a]pyridin-3-yl}pyrimidin-4-amine] | < 15 | 95 nM | 6.4 nM
COc1ccn2c(-c3cc(NCc4ccc(-c5cocn5)cc4)ncn3)cnc2c1 [A51, [6-(7-methoxy-imidazo[1,2-a]pyridin-3-yl)-pyrimidin-4-yl]-(4-oxazol-4-yl-benzyl)-amine] | < 15 | 53 nM | 1.6 nM
CN1CCN(CCOc2ccn3c(-c4cc(NCc5ccc(-c6cnn(C)c6)cc5)ncn4)cnc3c2)CC1 [A61, (6-{7-[2-(4-methyl-piperazin-1-yl)-ethoxy]-imidazo[1,2-a]pyridin-3-yl}-pyrimidin-4-yl)-[4-(1-methyl-1H-pyrazol-4-yl)-benzyl]-amine] | < 15 | 34 nM | 6.5 nM
Cn1cc(-c2ccc(CNc3cc(-c4cnc5cc(OCC(C)(C)O)ccn45)ncn3)cc2)cn1 [A64, 2-methyl-1-(3-{6-[4-(1-methyl-1H-pyrazol-4-yl)-benzylamino]-pyrimidin-4-yl}-imidazo[1,2-a]pyridin-7-yloxy)-propan-2-ol] | < 15 | 84 nM | 6.7 nM
Cn1cc(-c2ccc(CNc3cc(-c4cnc5cc(OCCN6CCN(C7COC7)CC6)ccn45)ncn3)cc2)cn1 [A65, [4-(1-methyl-1H-pyrazol-4-yl)-benzyl]-(6-{7-[2-(4-oxetan-3-yl-piperazin-1-yl)-ethoxy]-imidazo[1,2-a]pyridin-3-yl}-pyrimidin-4-yl)-amine] | < 15 | 46 nM | 11 nM
COCCOc1ccn2c(-c3cc(NCc4ccc(-c5cnn(C)n5)cc4)ncn3)cnc2c1 [A71, {6-[7-(2-methoxy-ethoxy)-imidazo[1,2-a]pyridin-3-yl]-pyrimidin-4-yl}-[4-(2-methyl-2H-[1,2,3]triazol-4-yl)-benzyl]-amine] | < 15 | 45 nM | 4.6 nM
Cn1cc(-c2ccc(CNc3cc(-c4cnc5cc(OCCN6CCC(F)(F)C6)ccn45)ncn3)cc2)cn1 [A77, 6-{7-[2-(3,3-difluoropyrrolidin-1-yl)ethoxy]imidazo[1,2-a]pyridin-3-yl}-N-{[4-(1-methyl-1H-pyrazol-4-yl)phenyl]methyl}pyrimidin-4-amine] | < 15 | 40 nM | 14 nM
CN1CCC(COc2ccn3c(-c4cc(NCc5ccc(-n6ccnn6)cc5)ncn4)cnc3c2)CC1 [A80, {6-[7-(1-methyl-piperidin-4-ylmethoxy)-imidazo[1,2-a]pyridin-3-yl]-pyrimidin-4-yl}-(4-[1,2,3]triazol-1-yl-benzyl)-amine] | > 50 | 38 nM | 3.4 nM
Cn1cc(-c2ccc(CNc3cc(-c4cnc5cc(OCC(C)(C)CN6CCCC6)ccn45)ncn3)cc2)cn1 [A91, {6-[7-(2,2-dimethyl-3-pyrrolidin-1-yl-propoxy)-imidazo[1,2-a]pyridin-3-yl]-pyrimidin-4-yl}-[4-(1-methyl-1H-pyrazol-4-yl)-benzyl]-amine] | < 15 | 76 nM | 8.6 nM
Cn1cc(-c2ccc(CNc3cc(-c4cnc5cc(OCC(C)(C)N)ccn45)ncn3)cc2)cn1 [A104, {6-[7-(2-amino-2-methyl-propoxy)-imidazo[1,2-a]pyridin-3-yl]-pyrimidin-4-yl}-[4-(1-methyl-1H-pyrazol-4-yl)-benzyl]-amine] | 15 to 50 | 170 nM | 7 nM
Cn1cc(-c2ccc(CNc3cc(-c4cnc5cc(OCCN6CC7(COC7)C6)ccn45)ncn3)cc2)cn1 [A114, [4-(1-methyl-1H-pyrazol-4-yl)-benzyl]-(6-{7-[2-(2-oxa-6-aza-spiro[3.3]hept-6-yl)-ethoxy]-imidazo[1,2-a]pyridin-3-yl}-pyrimidin-4-yl)-amine] | 15 to 50 | 86 nM | 9.4 nM
Cn1cc(-c2ccc(CNc3cc(-c4cnc5cc(OCCCN6CCCCC6)ccn45)ncn3)cc2)cn1 [A237, N-{[4-(1-methyl-1H-pyrazol-4-yl)phenyl]methyl}-6-{7-[3-(piperidin-1-yl)propoxy]imidazo[1,2-a]pyridin-3-yl}pyrimidin-4-amine] | – | 35 nM | 4.3 nM
Cn1ncc(-c2ccc(CNc3cc(-c4cnc5cc(OCCCN6CC7(COC7)C6)ccn45)ncn3)cc2)n1 [A239, [4-(2-methyl-2H-[1,2,3]triazol-4-yl)-benzyl]-(6-{7-[3-(2-oxa-6-aza-spiro[3.3]hept-6-yl)-propoxy]-imidazo[1,2-a]pyridin-3-yl}-pyrimidin-4-yl)-amine] | – | 94 nM | 3.2 nM
Cn1cc(-c2ccc(CNc3cc(-c4cnc5cc(F)ccn45)ncn3)cc2)cn1 [H1, 6-{7-fluoroimidazo[1,2-a]pyridin-3-yl}-N-{[4-(1-methyl-1H-pyrazol-4-yl)phenyl]methyl}pyrimidin-4-amine] | – | 240 nM | 12 nM

Now from value to compound:

efflux ratio at 2 h, 1 μM [1] | IC50 [2] | IC50 (c-Kit(V654A)) | Structure (SMILES)
< 15 | 130 nM | 8.6 nM | COc1ccn2c(-c3cc(NCc4ccc(-c5noc(C)n5)cc4)ncn3)cnc2c1 [A26, 6-{7-methoxyimidazo[1,2-a]pyridin-3-yl}-N-{[4-(5-methyl-1,2,4-oxadiazol-3-yl)phenyl]methyl}pyrimidin-4-amine]
< 15 | 78 nM | 4.4 nM | COc1ccn2c(-c3cc(NCc4ccc(-c5cnn(C)n5)cc4)ncn3)cnc2c1 [A32, [6-(7-methoxy-imidazo[1,2-a]pyridin-3-yl)-pyrimidin-4-yl]-[4-(2-methyl-2H-[1,2,3]triazol-4-yl)-benzyl]-amine]
< 15 | 140 nM | 4.2 nM | COc1ccn2c(-c3cc(NCc4ccc(-c5cnn(C)c5)s4)ncn3)cnc2c1 [A36, 6-{7-methoxyimidazo[1,2-a]pyridin-3-yl}-N-{[5-(1-methyl-1H-pyrazol-4-yl)thiophen-2-yl]methyl}pyrimidin-4-amine]
< 15 | 84 nM | 12 nM | CN1CCC(Oc2ccn3c(-c4cc(NCc5ccc(-c6cnn(C)c6)cc5)ncn4)cnc3c2)CC1 [A63, {6-[7-(1-methyl-piperidin-4-yloxy)-imidazo[1,2-a]pyridin-3-yl]-pyrimidin-4-yl}-[4-(1-methyl-1H-pyrazol-4-yl)-benzyl]-amine]
> 50 | 65 nM | 4.8 nM | CN1CCN(CCOc2ccn3c(-c4cc(NCc5ccc(-n6ccnn6)cc5)ncn4)cnc3c2)CC1 [A67, (6-{7-[2-(4-methyl-piperazin-1-yl)-ethoxy]-imidazo[1,2-a]pyridin-3-yl}-pyrimidin-4-yl)-(4-[1,2,3]triazol-1-yl-benzyl)-amine]
< 15 | 49 nM | 4.8 nM | Cn1cc(-c2ccc(CNc3cc(-c4cnc5cc(OCCCN6CCOCC6)ccn45)ncn3)cc2)cn1 [A74, [4-(1-methyl-1H-pyrazol-4-yl)-benzyl]-{6-[7-(3-morpholin-4-yl-propoxy)-imidazo[1,2-a]pyridin-3-yl]-pyrimidin-4-yl}-amine]
< 15 | 69 nM | 7.5 nM | Cn1cc(-c2ccc(CNc3cc(-c4cnc5cc(OCCCO)ccn45)ncn3)cc2)cn1 [A131, 3-(3-{6-[4-(1-methyl-1H-pyrazol-4-yl)-benzylamino]-pyrimidin-4-yl}-imidazo[1,2-a]pyridin-7-yloxy)-propan-1-ol]
< 15 | 30 nM | 2.6 nM | Cn1ncc(-c2ccc(CNc3cc(-c4cnc5cc(OCCCN6CCOCC6)ccn45)ncn3)cc2)n1 [A133]
– | 62 nM | 6.4 nM | Cn1cc(-c2ccc(CNc3cc(-c4cnc5cc(OCCCN6CC7(COC7)C6)ccn45)ncn3)cc2)cn1 [A238, [4-(1-methyl-1H-pyrazol-4-yl)-benzyl]-(6-{7-[3-(2-oxa-6-aza-spiro[3.3]hept-6-yl)-propoxy]-imidazo[1,2-a]pyridin-3-yl}-pyrimidin-4-yl)-amine]
